From patent US20250312320A1, “METHOD AND TREATMENT FOR OSTEOARTHRITIS AND DISEASES OF CHONDROCYTE HYPERTROPHY” (The Royal Veterinary College, priority 2022, published 2025)

System: ATDC5 micromass
Test: Dose response of CDK8 inhibitors on ATDC5 micromass (alizarin red / alcian blue)
Format: cell-based, mouse
Conditions: day 14
Protocol: (§1) In brief, 2 μl micromasses were seeded in a 96-well plate and cultured as previous in the presence of BI1347 and additional CDK8i compounds namely BRD6989, AS2863619, SEL120-34A, MSC2530818 and CCT251545. Compound concentrations were titrated 10-fold from 10 μM down to 0.1 nM. On day 14 micromasses were fixed, stained and subsequently leached to allow for dose response analysis to be conducted.
as §1, with “seeded on” for “seeded in”, “additional Mediator kinase inhibitor” for “additional CDK8i”

Q: For `Cc1c(Br)c(Br)c2c3c1nc(N1CCNCC1)n3CCC2.Cl` [SEL120-34A], which “alcian blue staining (GAG deposition)” value (highest concentration of 10 μM) is on record?
A: modestly reduced

Q: `CC1CCc2nc(N)c(C#N)c(-c3cccnc3)c2C1` (stereo not shown) [BRD6989] was tested. Which “alcian blue staining (GAG deposition)” value (all concentrations (10 μM down to 0.1 nM)) did it give?
A: maintained

Q: Which “alcian blue staining (GAG deposition)” value (highest concentration of 10 μM) does the source give for `Cn1cc(-c2ccc(-c3cncc(Cl)c3N3CCC4(CCNC4=O)CC3)cc2)cn1` [CCT251545] here?
A: modestly reduced

Q: For `Cc1nc2ccc(-n3c(-c4nonc4N)nc4cnccc43)cc2[nH]1.Cl.Cl` [AS2863619], which “alcian blue staining (GAG deposition)” value (highest concentration of 10 μM) is on record?
A: modestly reduced
